Experiment [1] has as its target HCV NS3/4A protease genotype 1b (Hepatitis C virus genotype 1b, UniProt P26663). As to the kind of experiment: HCV NS3/4A protease time-resolved fluorescence (TRF) assay, Ki against genotype 1b. The experiment is classed as biochemical. In a few lines:
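First, protease (genotype 1b 0.2 nM, A156T 0.4 nM, genotype 3a 0.025 nM) is preincubated 30 min with inhibitor. Next, 25 nM TRF substrate starts the reaction, run 2.5 h at room temperature. Finally, europium fluorescence is read and Ki calculated from IC50.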

Experiment [2] deals with HCV genotype 1b replicon. The experiment in a line: HCV replicon assay, genotype 1b replicon EC50. The format is cell-based, Hepatitis C virus. The conditions noted are these: Hepatitis C virus, read-out: EC50 [gt-1b]. In a few lines: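 Replicon cells (Neo^r, some luciferase:Neo^r fusion); G418 removed at plating; compound dilution series, 24-48 h. Readout: RNA by 32P-probe hybridization/protection or TaqMan, normalized to cyclophilin A RNA, or luciferase. EC50 vs DMSO control, 4-parameter fit.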

Where [3] appears, read: IC50 [gt-1b] (nM), NS3/4A genotype 1b, enzyme 0.2 nM.
Where [4] appears, read: IC50 [gt-1b] (nM), NS3/4A genotype 1b, enzyme 0.2 nM, K+ salt.
Setting [5] is: IC50 [gt-1b], NS3/4A protease TRF assay, genotype 1b enzyme 0.2 nM.

The values that follow come from US8987195B2 (priority 2012, dated 2015).

SMILES strings stand for the structures. Where two headings read alike, the source gives them in different places.

In general, IC50 refers to the concentration that inhibits the measured activity by half. One may read the EC50 as the midpoint of the concentration-response curve. Consider `Cc1ccnc(N[C@H]2CCCCC/C=C\[C@@H]3C[C@@]3(C(=O)NS(=O)(=O)C3(C)CC3)NC(=O)[C@@H]3C[C@]4(CCc5c(c(C)nc6ccccc56)O4)CN3C2=O)c1` [Example 350, (2R,6S,12Z,13aS,14aR,16aS)-5′-methyl-N-[(1-methylcyclopropyl)sulfonyl]-6-[(4-methylpyridin-2-yl)amino]-5,16-dioxo-1,1′,2′,6,7,8,9,10,11,13a,14,15,16,16a-tetradecahydrospiro[cyclopropa[e]pyrrolo[1,2-a][1,4]diazacyclopentadecine-2,3′-pyrano[2,3-c]quinoline]-14a(5H)-carboxamide], for which, in experiment [1] (setting [3]), it took 0.035 nM to reach half-maximal inhibition (IC50). In addition, the EC50 in experiment [2] (genotype 1b replicon) worked out at 2.84 nM.

Consider `COc1ccc2nc(C(F)(F)F)c3c(c2c1)CC[C@]1(C[C@H]2C(=O)N[C@]4(C(=O)NS(=O)(=O)C5(C)CC5)C[C@H]4/C=C\CCCCC[C@H](NC(=O)O[C@@H](C)C(C)C)C(=O)N2C1)O3` [Example 351, (2S)-3-methylbutan-2-yl [(2R,6S,12Z,13aS,14aR,16aS)-9′-methoxy-14a-{[(1-methylcyclopropyl)sulfonyl]carbamoyl}-5,16-dioxo-5′-(trifluoromethyl)-1,1′,2′,5,6,7,8,9,10,11,13a,14,14a,15,16,16a-hexadecahydrospiro[cyclopropa[e]pyrrolo[1,2-a][1,4]diazacyclopentadecine-2,3′-pyrano[2,3-c]quinolin]-6-yl]carbamate], for which the concentration for half-maximal inhibition (IC50) in experiment [1] (setting [4]) turned out to be 0.029 nM. Besides, the EC50 in experiment [2] (genotype 1b replicon, K+ salt) amounted to 2.19 nM.

On to `COc1ccc2nc(C(C)C)c3c(c2c1)[C@H](F)C[C@]1(C[C@H]2C(=O)N[C@]4(C(=O)NS(=O)(=O)C5(C)CC5)C[C@H]4/C=C\CCCCC[C@H](NC(=O)OC(C)(C)C(F)(F)F)C(=O)N2C1)O3` [Example 352, 1,1,1-trifluoro-2-methylpropan-2-yl [(1′R,2S,6S,12Z,13aS,14aR,16aS)-1′-fluoro-9′-methoxy-14a-{[(1-methylcyclopropyl)sulfonyl]carbamoyl}-5,16-dioxo-5′-(propan-2-yl)-1,1′,2′,5,6,7,8,9,10,11,13a,14,14a,15,16,16a-hexadecahydrospiro[cyclopropa[e]pyrrolo[1,2-a][1,4]diazacyclopentadecine-2,3′-pyrano[2,3-c]quinolin]-6-yl]carbamate], for which the IC50 in experiment [1] (setting [4]) worked out at 0.042 nM. Moreover, the EC50 in experiment [2] (genotype 1b replicon, K+ salt) turned out to be 1.45 nM.

`Cc1nc2ccccc2c2c1O[C@]1(CC2)C[C@H]2C(=O)N[C@]3(C(=O)NS(=O)(=O)C4(C)CC4)C[C@H]3/C=C\CCCCC[C@H](Nc3ccccn3)C(=O)N2C1` [Example 353, (2R,6S,12Z,13aS,14aR,16aS)-5′-methyl-N-[(1-methylcyclopropyl)sulfonyl]-5,16-dioxo-6-(pyridin-2-ylamino)-1,1′,2′,6,7,8,9,10,11,13a,14,15,16,16a-tetradecahydrospiro[cyclopropa[e]pyrrolo[1,2-a][1,4]diazacyclopentadecine-2,3′-pyrano[2,3-c]quinoline]-14a(5R)-carboxamide] showed an IC50 in experiment [1] (setting [3]) of 0.111 nM. The EC50 in experiment [2] (genotype 1b replicon) was determined as 39.5 nM.

Regarding `COc1ccc2nc(C)c3c(c2c1)[C@@H](F)C[C@]1(C[C@H]2C(=O)N[C@]4(C(=O)NS(=O)(=O)C5(C)CC5)C[C@H]4/C=C\CCCCC[C@H](NC(=O)OC(C)(C)C)C(=O)N2C1)O3` [Example 354, tert-butyl [(1′S,2S,6S,12Z,13aS,14aR,16aS)-1′-fluoro-9′-methoxy-5′-methyl-14a-{[(1-methylcyclopropyl)sulfonyl]carbamoyl}-5,16-dioxo-1,1′,2′,5,6,7,8,9,10,11,13a,14,14a,15,16,16a-hexadecahydrospiro[cyclopropa[e]pyrrolo[1,2-a][1,4]diazacyclopentadecine-2,3′-pyrano[2,3-c]quinolin]-6-yl]carbamate], the half-maximal inhibitory concentration (IC50) in experiment [1] (setting [3]) stood at 0.169 nM. Besides, the EC50 in experiment [2] (genotype 1b replicon) stood at 103 nM.

In the case of `COc1ccc2nc(C)c3c(c2c1)[C@H](F)C[C@]1(C[C@H]2C(=O)N[C@]4(C(=O)NS(=O)(=O)C5(C)CC5)C[C@H]4/C=C\CCCCC[C@H](NC(=O)OC(C)(C)C(F)(F)F)C(=O)N2C1)O3` [Example 355, 1,1,1-trifluoro-2-methylpropan-2-yl [(1′R,2S,6S,12Z,13aS,14aR,16aS)-1′-fluoro-9′-methoxy-5′-methyl-14a-{[(1-methylcyclopropyl)sulfonyl]carbamoyl}-5,16-dioxo-1,1′,2′,5,6,7,8,9,10,11,13a,14,14a,15,16,16a-hexadecahydrospiro[cyclopropa[e]pyrrolo[1,2-a][1,4]diazacyclopentadecine-2,3′-pyrano[2,3-c]quinolin]-6-yl]carbamate], in experiment [1] (setting [4]), the IC50 is 0.02 nM. Further, the EC50 in experiment [2] (genotype 1b replicon, K+ salt) worked out at 3.77 nM.

Regarding `COc1ccc2nc(C)c3c(c2c1)[C@H](F)C[C@]1(C[C@H]2C(=O)N[C@]4(C(=O)NS(=O)(=O)C5(C)CC5)C[C@H]4/C=C\CCCCC[C@H](NC(=O)O[C@H](C)C(C)C)C(=O)N2C1)O3` [Example 356, (2R)-3-methylbutan-2-yl [(1′R,2S,6S,12Z,13aS,14aR,16aS)-1′-fluoro-9′-methoxy-5′-methyl-14a-{[(1-methylcyclopropyl)sulfonyl]carbamoyl}-5,16-dioxo-1,1′,2′,5,6,7,8,9,10,11,13a,14,14a,15,16,16a-hexadecahydrospiro[cyclopropa[e]pyrrolo[1,2-a][1,4]diazacyclopentadecine-2,3′-pyrano[2,3-c]quinolin]-6-yl]carbamate], in experiment [1] (setting [4]), the IC50 was 0.012 nM. For the same compound, in experiment [2] (genotype 1b replicon, K+ salt), the EC50 stood at 3.73 nM.

As for `COc1ccc2nc(C)c3c(c2c1)[C@H](F)C[C@]1(C[C@H]2C(=O)N[C@]4(C(=O)NS(=O)(=O)C5(C)CC5)C[C@H]4/C=C\CCCCC[C@H](NC(=O)O[C@@H](C)C(C)C)C(=O)N2C1)O3` [Example 357, (2S)-3-methylbutan-2-yl [(1′R,2S,6S,12Z,13aS,14aR,16aS)-1′-fluoro-9′-methoxy-5′-methyl-14a-{[(1-methylcyclopropyl)sulfonyl]carbamoyl}-5,16-dioxo-1,1′,2′,5,6,7,8,9,10,11,13a,14,14a,15,16,16a-hexadecahydrospiro[cyclopropa[e]pyrrolo[1,2-a][1,4]diazacyclopentadecine-2,3′-pyrano[2,3-c]quinolin]-6-yl]carbamate], the IC50 in experiment [1] (setting [4]) amounted to 0.01 nM. The EC50 in experiment [2] (genotype 1b replicon, K+ salt) came out at 2.91 nM.

Take `COc1ccc2nc(C)c3c(c2c1)[C@H](F)C[C@]1(C[C@H]2C(=O)N[C@]4(C(=O)NS(=O)(=O)C5(C)CC5)C[C@H]4/C=C\CCCCC[C@H](NC(=O)O[C@@H](C)C(C)C)C(=O)N2C1)O3` [Example 358, (2S)-3-methylbutan-2-yl [(1′R,2S,6S,12Z,13aS,14aR,16aS)-1′-fluoro-9′-methoxy-5′-methyl-14a-{[(1-methylcyclopropyl)sulfonyl]carbamoyl}-5,16-dioxo-1,1′,2′,5,6,7,8,9,10,11,13a,14,14a,15,16,16a-hexadecahydrospiro[cyclopropa[e]pyrrolo[1,2-a][1,4]diazacyclopentadecine-2,3′-pyrano[2,3-c]quinolin]-6-yl]carbamate]: in experiment [1] (IC50 [gt-1b], NS3/4A protease TRF assay, genotype 1b enzyme 0.2 nM, K+ salt), the IC50 was determined as 0.172 nM. Also, the EC50 in experiment [2] (HCV replicon, genotype 1b, K+ salt) was 42.8 nM.

In turn, `Cc1nc2ccccc2c2c1O[C@]1(CC2)C[C@H]2C(=O)N[C@]3(C(=O)NS(=O)(=O)C4(C)CC4)C[C@H]3/C=C\CCCCC[C@H](Nc3ncccn3)C(=O)N2C1` [Example 359, (2R,6S,12Z,13aS,14aR,16aS)-5′-methyl-N-[(1-methylcyclopropyl)sulfonyl]-5,16-dioxo-6-(pyrimidin-2-ylamino)-1,1′,2′,6,7,8,9,10,11,13a,14,15,16,16a-tetradecahydrospiro[cyclopropa[e]pyrrolo[1,2-a][1,4]diazacyclopentadecine-2,3′-pyrano[2,3-c]quinoline]-14a(5H)-carboxamide] returned an IC50 in experiment [1] (setting [5]) of 0.4 nM. Moreover, the EC50 in experiment [2] (HCV replicon, genotype 1b) came out at 205 nM.

The compound `Cc1nc2ccccc2c2c1O[C@]1(CC2)C[C@H]2C(=O)N[C@]3(C(=O)NS(=O)(=O)C4(C)CC4)C[C@H]3/C=C\CCCCC[C@H](Nc3nccs3)C(=O)N2C1` [Example 360, (2R,6S,12Z,13aS,14aR,16aS)-5′-methyl-N-[(1-methylcyclopropyl)sulfonyl]-5,16-dioxo-6-(1,3-thiazol-2-ylamino)-1,1′,2′,6,7,8,9,10,11,13a,14,15,16,16a-tetradecahydrospiro[cyclopropa[e]pyrrolo[1,2-a][1,4]diazacyclopentadecine-2,3′-pyrano[2,3-c]quinoline]-14a(5H)-carboxamide] registered an IC50 in experiment [1] (setting [5]) of 0.143 nM. Besides, the EC50 in experiment [2] (HCV replicon, genotype 1b) came to 140 nM.

On to `COc1ccc2nc(C)c3c(c2n1)CC[C@]1(C[C@H]2C(=O)N[C@]4(C(=O)NS(=O)(=O)C5(C)CC5)C[C@H]4/C=C\CCCCC[C@H](NC(=O)OCC(C)C)C(=O)N2C1)O3` [Example 362, 2-methylpropyl [(2R,6S,12Z,13aS,14aR,16aS)-2′-methoxy-6′-methyl-14a-{[(1-methylcyclopropyl)sulfonyl]carbamoyl}-5,16-dioxo-1,5,6,7,8,9,9′,10,10′,11,13a,14,14a,15,16,16a-hexadecahydrospiro[cyclopropa[e]pyrrolo[1,2-a][1,4]diazacyclopentadecine-2,8′-pyrano[2,3-c][1,5]naphthyridin]-6-yl]carbamate], for which inhibition in experiment [1] (setting [5]) was half-maximal at 0.008 nM (IC50). For the same compound, in experiment [2] (HCV replicon, genotype 1b), the EC50 stood at 4.07 nM.
